How the values were obtained:
[1] = test system: short term T-cell lines from peripheral blood mononuclear cells; assay: T-cell line reactivity to MBP, PLP and MBP peptides (proliferation assay); format: cell-based, human; conditions: for mean frequency of T-cell lines reactive to the peptide, MS vs controls (FIG. 1): MS patients compared with combined normal and other neurologic disease controls; for MEAN FREQUENCY Ag REACTIVE LINES: mean +/- SEM
Method: A rapid T-cell cloning technique was used to examine whether there were immunodominant epitopes on human MBP reactive with Class II MHC phenotypes and the frequency of such reactivity. A total of 15,824 short term T-cell lines were generated from 51 human subjects by culturing peripheral blood mononuclear cells ([…]) with purified MBP (100 μg) followed 3 days later, and then every 3-4 days, by the addition of interleukin-2 (IL-2; from ABI, Columbia, Md.) and 2 units recombinant interleukin-4 (IL-4; Genzyme, Boston, Mass.). On Day 13 of culture, an aliquot from each line was tested for reactivity to MBP using the following proliferation assay: T-cell clones (1×10^5 cells/well) were plated in triplicate and cocultured with appropriate stimuli (i.e. 100 μg whole MBP or 5% IL-2) for 72 hours at 37° C., 90% humidity, 5% CO2, in 96 well flat bottomed microtiter plates (Costar). The cells were pulsed with 2 μCi [^3 H]TdR (2 Ci/mmole, New England Nuclear, Boston, Mass.) for the last 18 hours of culture. APCs were prepared by pulsing human Epstein-Barrvirus transformed human B-cells (the virus being commercially available from ATCC) or L-cells which are mouse cells transfected with human DR2 (L-cells are commercially available from ATCC under accession No. ATCC-CCL1 and can be transfected according to the method of Wilkinson, D. et al, J. Exp. Med., 1988, 167:1442-1458 using DNA encoding DR2 as per Wu, S. et al J. Immunol., 1987, 138:2953). B-cells or L-cells were used at 1×10^6 cells/well in complete media either in the presence or absence of 40 pM MBP or phospholipid protein (PLP) for 2 hours at 37° C., washing twice with 4° C. Hanks (Whittaker), followed by irradiation with 5000 rad. at 4° C. To stimulate T-cells without accessory APCs, 2 μM of MBP, PLP, or the appropriate fragment was added directly to the cells for the duration of the culture: 48 hours, followed by pulsing […] and then harvesting. Ten thousand APC's were used for 100,000 T-cell clones.
T-cell lines shown to be reactive to MBP or PLP were then tested using the same technique for reactivity to overlapping oligopeptide 20-mers encompassing the human MBP sequence as shown in Table 1 above. MBP and PLP reactivity frequency analysis was performed on patients with definite, relapsing-remitting MS (as diagnosed by Magnetic Resonance Imaging (MRI) and clinical examination), as well as on subjects with other neurologic diseases and on normal subjects (all age- and sex-matched to the MS patients).

actively induced EAE = assay: suppression of actively induced EAE (MBP/CFA immunization); format: in vivo, Lewis rats
[2] = other neurological disease (n = 10)

“HHPARTAHYGSLPQKSEGRT [61-82, human MBP amino acid residues 61-82]” was tested, and the “mean frequency of T-cell lines reactive to the peptide, MS vs controls (FIG. 1)” value [1] was “Significant but less striking increases”.

With “143-168: human MBP fragment of amino acids 143-168, second immunodominant domain (RHGSKYLATASTMDHARHGFLPRHRD; UniProt P02686 143-168, looked up, fragment)” the “mean frequency of T-cell lines reactive to the peptide, MS vs controls (FIG. 1)” value [1] was “both MS and control subjects showed high frequencies”, the “MBP-reactive cell lines that reacted with either MBP residues 84-102 or 143-168” value ([1]; cell lines from patients with MS) was 70-80% and the “MBP-reactive T-cell lines that recognized either the 84-102 or the 143-168 peptide” value ([1]; control groups) was “about 34%”. The “Peptide Reactivity (Fraction of MBP-Reactive Lines)” value ([1]; subject NS-dd, stimulus IL-2) was 1/2, the “Peptide Reactivity (Fraction of MBP-Reactive Lines)” value ([1]; subject NS-dd, stimulus MBP) was 6/12 and the “Peptide Reactivity (Fraction of MBP-Reactive Lines)” value ([1]; subject NS-jl, stimulus IL-2) was 5/12. For the same molecule, the “Peptide Reactivity (Fraction of MBP-Reactive Lines)” value ([1]; subject NS-kw, stimulus MBP) was 5/8, the “Peptide Reactivity (Fraction of MBP-Reactive Lines)” value ([1]; subject five, stimulus IL-2) was 5/6 and the “Peptide Reactivity (Fraction of MBP-Reactive Lines)” value ([1]; subject five, stimulus MBP) was 6/7. For the same molecule, the “Peptide Reactivity (Fraction of MBP-Reactive Lines)” value ([1]; subject seven, stimulus IL-2) was 2/3, the “Peptide Reactivity (Fraction of MBP-Reactive Lines)” value ([1]; subject seven, stimulus MBP) was 5/8 and the “Peptide Reactivity (Fraction of MBP-Reactive Lines)” value ([1]; subject six, stimulus IL-2) was 1/2. The “Peptide Reactivity (Fraction of MBP-Reactive Lines)” value ([1]; subject three, stimulus IL-2) was 2/2, the “Peptide Reactivity (Fraction of MBP-Reactive Lines)” value ([1]; subject three, stimulus MBP) was 2/2 and the “Peptide Reactivity (Fraction of MBP-Reactive Lines)” value ([1]; subject two, stimulus IL-2) was 4/4. For the same molecule, the “Peptide Reactivity (Fraction of MBP-Reactive Lines)” value ([1]; subject two, stimulus MBP) was 8/10.

“guinea pig MBP peptide 131-150: control guinea pig MBP peptide (DYKSKGFKGAHDAQGTLSKI; UniProt P25188 131-150, looked up, fragment)” was tested, and the “suppression of EAE via IV tolerization” value (actively induced EAE; intravenous administration prior to immunization (FIG. 7)) was “did not suppress” and the “suppression of EAE via oral tolerization” value (actively induced EAE; oral administration prior to immunization (FIG. 7)) was “did not suppress”.

B1: PLP: proteolipid protein, myelin autoantigen (protein, UniProt P60201 2-277, looked up)
Myelin proteolipid protein: GLLECCARCLVGAPFASLVATGLCFFGVALFCGCGHEALTGTEKLIETYFSKNYQDYEYLINVIHAFQYVIYGTASFFFLYGALLLAEGFYTTGAVRQIFGDYKTTICGKGLSATVTGGQKGRGSRGQHQAHSLERVCHCLGKWLGHPDKFVGITYALTVVWLLVFACSAVPVYIYFNTWTTCQSIAFPSKTSASIGSLCADARMYGVLPWNAFPGKVCGSNLLSICKTAEFQMTFHLFIAAFVGAAATLVSLLTFMIAATYNFAVLKLMGRGTKF
B1 was tested, and the “#Ag REACTIVE LINES / TOTAL # LINES” value ([1]; MS patients (n = 23)) was 20/432, the “MEAN FREQUENCY Ag REACTIVE LINES” value ([1]; MS patients (n = 23), per-subject reactive/total lines) was 3.34 ± 1.56 and the “#Ag REACTIVE LINES / TOTAL # LINES” value [1, 2] was 3/384. For the same molecule, the “MEAN FREQUENCY Ag REACTIVE LINES” value [1, 2] was 0.9 ± 0.62.
